# From patent publication US9062074B2, “(9E)-15-(2-pyrrolidin-1-yl-ethoxy)-7,12,25-trioxa-19,21,24-triaza-tetracyclo[18.3.1.1(2.5).1(14,18)]hexacosa-1(24),2,4,9,14,16,18(26),20,22-nonaene citrate salt” (CTI BioPharma Corp., priority 2009, dated 2015)
# Test: Gravimetric Vapour Sorption (GVS)
# Assay type: physicochemical
# Experimental: Sorption isotherms were obtained using a SMS DVS Intrinsic moisture sorption analyser, controlled by SMS Analysis Suite software. The sample temperature was maintained at 25° C. by the instrument controls. The humidity was controlled by mixing streams of dry and wet nitrogen, with a total flow rate of 200 ml.min^−1. The relative humidity was measured by a calibrated Rotronic probe (dynamic range of 1.0-100% RH), located near the sample. The weight change, (mass relaxation) of the sample as a function of % RH was constantly monitored by the microbalance (accuracy ±0.005 mg). Typically 5-20 mg of sample was placed in a tared mesh stainless steel basket under ambient conditions. The sample was loaded and unloaded at 40% RH and 25° C. (typical room conditions). A moisture sorption isotherm was performed as outlined below (2 scans giving 1 complete cycle). The standard isotherm was performed at 25° C. at 10% RH intervals over a 0.5-90% RH range.
# The hygroscopicity of the citrate was investigated by carrying out a gravimetric vapour sorption experiment on Batch 4. A sample of approximately 20 mg was held at 25° C. whilst the humidity of its environment was changed through two complete cycles. […] The sample takes longer to reach equilibrium in the early stages of the experiment. This may be due to displacement of residual solvent.
smiles,measurement,setting,value
C1=C2COC/C=C/COCc3cc(ccc3OCCN3CCCC3)Nc3nccc(n3)C(=C1)O2 [Batch 4],Gravimetric Vapour Sorption Max weight change,,< 1%
same,Sorp Mass Change,"Cycle 1 adsorption, Target RH 40.0%, 25° C.",−0.1186%
same,Sorp Mass Change,"Cycle 1 adsorption, Target RH 50.0%, 25° C.",−0.0817%
same,Sorp Mass Change,"Cycle 1 adsorption, Target RH 60.0%, 25° C.",0.0329%
same,Sorp Mass Change,"Cycle 1 adsorption, Target RH 70.0%, 25° C.",0.1086%
same,Sorp Mass Change,"Cycle 1 adsorption, Target RH 80.0%, 25° C.",0.2342%
same,Sorp Mass Change,"Cycle 1 adsorption, Target RH 90.0%, 25° C.",0.5631%
same,Sorp Mass Change,"Cycle 1 desorption, Target RH 0.0%, 25° C.",−0.2816%
same,Sorp Mass Change,"Cycle 1 desorption, Target RH 10.0%, 25° C.",−0.2093%
same,Sorp Mass Change,"Cycle 1 desorption, Target RH 20.0%, 25° C.",−0.1545%
same,Sorp Mass Change,"Cycle 1 desorption, Target RH 30.0%, 25° C.",−0.1076%
same,Sorp Mass Change,"Cycle 1 desorption, Target RH 40.0%, 25° C.",−0.0548%
same,Sorp Mass Change,"Cycle 1 desorption, Target RH 50.0%, 25° C.",0.0100%
same,Sorp Mass Change,"Cycle 1 desorption, Target RH 60.0%, 25° C.",0.0743%
same,Sorp Mass Change,"Cycle 1 desorption, Target RH 70.0%, 25° C.",0.1610%
same,Sorp Mass Change,"Cycle 1 desorption, Target RH 80.0%, 25° C.",0.2905%
same,Sorp Mass Change,"Cycle 1 desorption, Target RH 90.0%, 25° C.",0.5631%
same,Sorp Mass Change,"Cycle 1 readsorption, Target RH 0.0%, 25° C.",−0.2816%
same,Sorp Mass Change,"Cycle 1 readsorption, Target RH 10.0%, 25° C.",−0.2138%
same,Sorp Mass Change,"Cycle 1 readsorption, Target RH 20.0%, 25° C.",−0.1620%
same,Sorp Mass Change,"Cycle 1 readsorption, Target RH 30.0%, 25° C.",−0.1146%
same,Sorp Mass Change,"Cycle 1 readsorption, Target RH 40.0%, 25° C.",−0.0643%
same,Sorp Mass Change,"Cycle 2 desorption (first segment, RH 40 to 90), Target RH 40.0%, 25° C.",−0.0643%
same,Sorp Mass Change,"Cycle 2 desorption (first segment, RH 40 to 90), Target RH 50.0%, 25° C.",−0.0100%
same,Sorp Mass Change,"Cycle 2 desorption (first segment, RH 40 to 90), Target RH 60.0%, 25° C.",0.0513%
same,Sorp Mass Change,"Cycle 2 desorption (first segment, RH 40 to 90), Target RH 70.0%, 25° C.",0.1281%
same,Sorp Mass Change,"Cycle 2 desorption (first segment, RH 40 to 90), Target RH 80.0%, 25° C.",0.2567%
same,Sorp Mass Change,"Cycle 2 desorption (first segment, RH 40 to 90), Target RH 90.0%, 25° C.",0.5397%
same,Sorp Mass Change,"Cycle 2 desorption (second segment, RH 90 to 0), Target RH 0.0%, 25° C.",−0.2836%
same,Sorp Mass Change,"Cycle 2 desorption (second segment, RH 90 to 0), Target RH 10.0%, 25° C.",−0.2093%
same,Sorp Mass Change,"Cycle 2 desorption (second segment, RH 90 to 0), Target RH 20.0%, 25° C.",−0.1565%
same,Sorp Mass Change,"Cycle 2 desorption (second segment, RH 90 to 0), Target RH 30.0%, 25° C.",−0.1032%
same,Sorp Mass Change,"Cycle 2 desorption (second segment, RH 90 to 0), Target RH 40.0%, 25° C.",−0.0528%
same,Sorp Mass Change,"Cycle 2 desorption (second segment, RH 90 to 0), Target RH 50.0%, 25° C.",0.0045%
same,Sorp Mass Change,"Cycle 2 desorption (second segment, RH 90 to 0), Target RH 60.0%, 25° C.",0.0738%
same,Sorp Mass Change,"Cycle 2 desorption (second segment, RH 90 to 0), Target RH 70.0%, 25° C.",0.1535%
same,Sorp Mass Change,"Cycle 2 desorption (second segment, RH 90 to 0), Target RH 80.0%, 25° C.",0.2771%
same,Sorp Mass Change,"Cycle 2 desorption (second segment, RH 90 to 0), Target RH 90.0%, 25° C.",0.5397%
same,Sorp Mass Change,"Cycle 2 readsorption, Target RH 0.0%, 25° C.",−0.2863%
same,Sorp Mass Change,"Cycle 2 readsorption, Target RH 10.0%, 25° C.",−0.2168%
same,Sorp Mass Change,"Cycle 2 readsorption, Target RH 20.0%, 25° C.",−0.1630%
same,Sorp Mass Change,"Cycle 2 readsorption, Target RH 30.0%, 25° C.",−0.1116%
same,Sorp Mass Change,"Cycle 2 readsorption, Target RH 40.0%, 25° C.",−0.0653%
same,water taken up (isotherm plot),"between 40% RH and 90% RH, 25° C.",< 0.6%
same,phase change after GVS experiment (XRPD),sample retrieved at end of GVS,no overall phase change
